What all share (test): inhibition of tumour cell growth, NCI panel, 48 h
In experiment [1] the test system is MALME-3M melanoma.
The test system of experiment [2] is SF-268 CNS.
Experiment [3] relates to TK-10 renal.
For experiment [4], the system named is OVCAR-8 ovarian.
Experiment [5] concerns HOP-92 NSCLC.
The test system of experiment [6] is MOLT-4 leukemia.
Experiment [7] relates to SN12C renal.
Experiment [8] deals with NCI-H226 lung.
The test system of experiment [9] is NCI-H23 lung.
Experiment [10] has as its system M14 melanoma.

Molecules are shown by their SMILES. “And” between values parts separate entries of the source, which are not always exact repeats. Identical values can stand only once.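 Interpolation was linear, between the two tested concentrations surrounding the appropriate level; five concentrations were tested over 48 hours in 96-well plates. GI50 is the concentration that inhibits growth by half. TGI denotes the concentration required for complete inhibition of growth.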 Some results are limits rather than exact numbers.

In PubChem BioAssay (NCI) one finds GI50 and TGI data, which are given here for eight compounds.

With `Cc1cc(C(C#N)c2ccc(Cl)cc2)c(Cl)cc1NC(=O)c1cc(I)cc(I)c1O` (stereo not given), the GI50 in experiment [1] was 4.93 µM and 10.4 µM; in experiment [2], 7.58 µM and 13.8 µM; in experiment [3], 11.8 µM and 22.4 µM; in experiment [4], 6.02 µM and 21.4 µM; in [5], 1.47 µM; in experiment [6] it was 4.74 µM and 22.6 µM. In addition, the GI50 in experiment [7] is 3.57 µM and 15.4 µM; in experiment [8], 11.9 µM; in [9], 6.2 µM and 14.6 µM; in experiment [10], 14.7 µM and 16.3 µM. Further, the TGI in experiment [1] was 20.2 µM and 27.5 µM; in [2] it was 22.2 µM and 31.3 µM; in experiment [3], 33.9 µM and 65.4 µM; in experiment [4], > 100 µM and 52.1 µM; in experiment [5] it was 4.65 µM; in experiment [6], 19.3 µM and 53.9 µM. In addition, the TGI was 35.6 µM and 39.2 µM in experiment [7]; 43.4 µM in [8]; 21 µM and 37.3 µM in [9]; 29.9 µM and 34.2 µM in experiment [10].
`O=C(CSC(=S)N1CCOCC1)Nc1nc2c(s1)CCCC2`: the TGI is above 100 µM in experiment [1]; above 100 µM in [2]; above 100 µM in [3]; above 100 µM in experiment [4]; 96.2 µM in [5]; above 100 µM in [6]. Further, the TGI in experiment [7], in [8], in experiment [9] and in experiment [10] was above 100 µM in each case.
In the case of `O=C(CCl)N1c2ccccc2Sc2c1ccc1ccccc21`, the GI50 in experiment [1] is 2.75 µM; in experiment [2], 1.88 µM; in experiment [3] it was 3.86 µM; in [4], 2.13 µM; in [5] it was 1.04 µM; in experiment [6], 2.49 µM. Moreover, the GI50 in experiment [7] was 1.79 µM; in experiment [8] it was 2.21 µM; in experiment [9] it was 2.2 µM; in experiment [10], 1.68 µM. The TGI is 7 µM in [1]; 3.47 µM in experiment [2]; 11.5 µM in experiment [3]; 5.48 µM in [4]; 5.32 µM in experiment [5]; above 100 µM in [6]. For the same compound, the TGI in [7] was found to be 3.27 µM; in experiment [8], 5.26 µM; in [9] it was 5.11 µM; in experiment [10], 3.53 µM.
As to `C[C@@H]1CN(CC(=O)N2CC(C)(C)c3nc(CO)c(Cc4ccc(F)cc4)cc32)[C@@H](CN2CCOC[C@H]2C)CN1`, the GI50 was 16 µM in experiment [1]; 64.1 µM in experiment [2]; above 100 µM in [3]; 32.1 µM in experiment [4]; 3.79 µM in [5]; 24.4 µM in experiment [6]. Also, the GI50 was 78.2 µM in [7], above 100 µM in experiment [8], 51.8 µM in experiment [9] and 18.6 µM in experiment [10]. Besides, the TGI was 31.1 µM in experiment [1]; above 100 µM in experiment [2]; above 100 µM in experiment [3]; above 100 µM in experiment [4]; 19.7 µM in experiment [5]; 77.9 µM in [6]. For the same compound, the TGI in [7] is above 100 µM; in experiment [8], above 100 µM; in [9] it was above 100 µM; in [10] it was 37.9 µM.
As for `O=C1C(Cl)=C(Nc2cccc(O)c2)C(=O)N1c1cc(Cl)c(Cl)cc1Cl`, the GI50 was 7.29 µM in experiment [1]; 19.5 µM in experiment [2]; 23.8 µM in experiment [3]; 24 µM in [4]; 12.5 µM in experiment [5]; 12.7 µM in [6]. The GI50 in experiment [7] is 15.6 µM; in [8], 14.7 µM; in experiment [9], 22.3 µM; in experiment [10], 20.8 µM. Moreover, the TGI in experiment [1] turned out to be 23.4 µM; in experiment [2] it was 42.5 µM; in [3], 48.6 µM; in [4], 75.5 µM; in experiment [5] it was 26.2 µM; in experiment [6] it was 37.2 µM. In addition, the TGI in [7] turned out to be 29.4 µM; in [8], 40.9 µM; in experiment [9] it was 48.3 µM; in [10] it was 40.9 µM.
`Nc1cc(N)c(N)cc1N`: the GI50 in experiment [1] was 1.79 µM; in [2], 3.06 µM; in experiment [3], 3.68 µM; in [4], 3.15 µM; in experiment [5] it was 12 µM; in experiment [6], 3.14 µM. The GI50 is 1.6 µM in experiment [7], 1.93 µM in [8], 1.67 µM in experiment [9] and 1.87 µM in [10]. In addition, the TGI in experiment [1] is 3.45 µM; in experiment [2], 12.2 µM; in experiment [3] it was 14.5 µM; in [4], 12.3 µM; in experiment [5], 27.2 µM; in [6], 28.6 µM. Also, the TGI in [7] turned out to be 3.08 µM; in experiment [8], 3.96 µM; in experiment [9] it was 4.1 µM; in experiment [10], 3.37 µM.
On to `CC(=O)c1cc([N+](=O)[O-])ccc1OCC(=O)O`, for which the TGI in experiment [1], in experiment [2], in experiment [3], in experiment [4], in experiment [5] and in [6] was above 100 µM each time. Moreover, the TGI in experiment [7], in experiment [8], in experiment [9] and in experiment [10] was above 100 µM in each case.
For `CC(=O)O[C@@H]1CC2C(C)(C)CCCC2(C)C2=C1C(=O)C(C(C)C)=CC2=O` (stereo not given in full), the GI50 in experiment [1] was 0.784 µM; in experiment [2], 1.39 µM; in experiment [3] it was 2.51 µM; in [4] it was 2.64 µM; in experiment [5], 0.652 µM; in experiment [6], 1.13 µM. Moreover, the GI50 is 1.28 µM in [7], 0.518 µM in experiment [8], 1.87 µM in experiment [9] and 0.46 µM in experiment [10]. For the same compound, the TGI is 4.8 µM in experiment [1]; 38.1 µM in experiment [2]; above 100 µM in experiment [3]; 15.9 µM in experiment [4]; 2.1 µM in [5]; above 100 µM in experiment [6]. Besides, the TGI amounted to 4.89 µM in [7], 2.09 µM in experiment [8], 7.86 µM in [9] and 2.34 µM in [10].
